Laboratory results as given in patent US20020115642A1, “Beta-lactam antibiotics” (priority 2000, published 2002).
≈ marks a conversion by molar mass, not a printed value. Where two headings read alike, the source gives them in different places.

How the values were obtained:
Staphylococcus aureus = test: Susceptibility testing (MIC, modified NCCLS method); type: cell-based; settings: Staphylococcus aureus
Method: (§1) The NCCLS (National Committee for Clinical Laboratory Standards) method to determine MIC's of antimicrobial compounds was modified for high-throughput screening. All stocks of tested compounds were prepared in either water or in dimethylsulfoxide (DMSO), depending on the solubility. […] Briefly 20 2-fold serial dilutions of testing compounds from the highest concentration were made in a 384-well microtiter plate. Each well was inoculated with testing bacteria in broth to a final concentration of approximately 1-1.5×10^6 cells/ml. Bacterial growth was determined by the increase of optical density at 600 nm using a microplate reader (Tecan SpectraFluor Plus).

E. faecalis = test: as above; type: cell-based, Enterococcus faecalis; settings: for MIC: Enterococcus faecalis, read-out: GM* MIC (geometric mean)
Method: as §1

S. epidermidis = test: as above; type: cell-based, Staphylococcus epidermidis; settings: for MIC: Staphylococcus epidermidis
Method: as §1

E. faecium = test: as above; type: cell-based, Enterococcus faecium; settings: for MIC: Enterococcus faecium, read-out: GM* MIC (geometric mean)
Method: as §1

[1] = tested on: Vancomycin-resistant E. faecalis or E. faecium; test: as above; type: cell-based, Enterococcus faecalis, Enterococcus faecium
Method: as §1

[2] = tested on: O=C(Cc1cccs1)N[C@@H]1C(=O)N2C(C(=O)O)=C(/C=C/c3ccc([N+](=O)[O-])cc3[N+](=O)[O-])CS[C@H]12; test: purified protein, by the assay type; settings: other: progress curve analysis at 16 μM Compound (9) and […] TEM-1 β-lactamase, 37° C.
[3] = tested on: UDP-glucuronosyltransferase; test: Glucuronidation assay; type: in vitro ADME, human; settings: 100 μM, 100 μg human liver microsome, 37° C., 1 hour, TLC
Method: Assays were conducted as outlined in Example 15, using 100 μM Compound (9), triclosan or cephalothin incubated with 100 μg human liver microsome at 37° C. for 1 hour. The reactants were analyzed on TLC plate, and glucuronidated compounds were visualized by MolecularDynamics Storm 820.
Glucuronidation assay was performed based on modified procedure from Bansal and Gessner (1980) Anal. Biochem. 109:321-329. Reactions were performed in 50 mM Tris buffer, pH 7.6, containing 10 mM MgCl2, ImM UDPGA, 0.04 μCi of ^14C-UDPGA, 0.1 mM substrate, and 100 μg human liver microsome. The final volume was 100 μL. Reactions were incubated at 37° C. for one hour and the reactants extracted with 200 μL of 100% ethanol. The protein was removed by centrifugation at 12,000×g for 5 minutes in an Eppendorf centrifuige. The supernatant was dried and resuspended in 30 μL of 100% methanol and spotted on a Whatman glass-backed linear k TLC plate. Chromatography was performed in a mixture of 1-butanol/acetone/acetic acid/water (35:35:10:20). The TLC plate was then dried and exposed to phosphor imager overnight, then monitored by imaging (MolecularDynamics Storm 820).

E coli R(Tem1) = test: Inhibition of bacterial growth (IC50, OD600); type: cell-based; settings: for IC50 ratio N/R: N versus R (Tem1)
Method: Compounds of the invention were tested for their ability to inhibit the growth of β-lactam sensitive and resistant bacteria by contacting samples of such cells with various dilutions of the compositions, incubating the cells at 37° C. in the presence of these compositions and then measuring the number of viable cells present in each sample.
Two compounds of the invention were tested, Compound (9) and Compound (1l). Incubation of bacterial cells was performed for two time periods, 10 hours and 20 hours. Four E. coli strains were used for the test. These strains were all derived from the strain NovaBlue (NovaGen Inc., Madison, Wis.). E. coli N is a normal, β-lactam sensitive strain. E coli R(Tem1) is a β-lactam resistant strain with a β-lactamase gene on a plasmid. E. coli C(Tem4O-15) is a β-lactam resistant strain with a β-lactam inhibitor resistant β-lactamase gene, and E. coli C(Tem3 1-27) is β-lactam resistant strain with an alternative β-lactam inhibitor resistant β-lactamase gene.
The various E. coli strains were each treated with dilutions of the compounds of the invention. […] The number of viable cells at each time point was determined by measuring the OD600 of each cell sample.
After measuring the number of viable cells present, the IC50 for each sample was determined. […] In addition, both compounds were effective at inhibiting the growth of both antibiotic sensitive and resistant bacterial cells.

K. pneumoniae = test: Susceptibility testing (MIC, modified NCCLS method); type: cell-based, Klebsiella pneumoniae; settings: Klebsiella pneumoniae; K. pneumoniae (5); read-out: GM* MIC (geometric mean)
Method: as §1

E. aerogenes = test: as above; type: cell-based, Enterobacter aerogenes; settings: E. aerogenes (5)
Method: as §1

E. cloacae = test: as above; type: cell-based, Enterobacter cloacae; settings: E. cloacae (1)
Method: as §1

E. coli/TEM-1 = test: as above; type: cell-based, Escherichia coli; settings: Escherichia coli
Method: as §1

E. coli N = test: as above; type: cell-based, Escherichia coli; settings: Escherichia coli; E. coli, BLA neg., drug alone; read-out: MIC
Method: as §1

S. pneumoniae = test: as above; type: cell-based, Streptococcus pneumoniae; settings: S. pneumoniae (3)
Method: as §1

Compound: CN[C@H](CC(C)C)C(=O)N[C@H]1C(=O)N[C@@H](CC(N)=O)C(=O)N[C@H]2C(=O)N[C@H]3C(=O)N[C@H](C(=O)N[C@H](C(=O)O)c4cc(O)cc(O)c4-c4cc3ccc4O)[C@H](O)c3ccc(c(Cl)c3)Oc3cc2cc(c3O[C@@H]2O[C@H](CO)[C@@H](O)[C@H](O)[C@H]2O[C@H]2C[C@](C)(N)[C@H](O)[C@H](C)O2)Oc2ccc(cc2Cl)[C@H]1O [Vancomycin, vancomycin, reference compound]
- MIC (Staphylococcus aureus; ATCC11632, ATCC 11632, methicillin-sensitive, β-lactamase Neg./Pos.): 0.25 µg/mL (≈ 0.173 µM)
- MIC (Staphylococcus aureus; ATCC13301, ATCC 13301, methicillin-sensitive, β-lactamase Positive): 0.25 µg/mL (≈ 0.173 µM)
- MIC (Staphylococcus aureus; ATCC14154, ATCC 14154, methicillin-sensitive, β-lactamase Positive): 0.5 µg/mL (≈ 0.345 µM)
- MIC (Staphylococcus aureus; ATCC33591, ATCC 33591, methicillin-resistant, β-lactamase Positive): 0.25 µg/mL (≈ 0.173 µM)
- MIC (Staphylococcus aureus; ATCC33592, ATCC 33592, methicillin-sensitive, β-lactamase Positive): 0.5 µg/mL (≈ 0.345 µM)
- MIC (Staphylococcus aureus; ATCC33593, ATCC 33593, methicillin-resistant, β-lactamase Positive): 0.5 µg/mL (≈ 0.345 µM)
- MIC (Staphylococcus aureus; ATCC33594, ATCC 33594, methicillin-sensitive, β-lactamase Positive): 0.5 µg/mL (≈ 0.345 µM)
- MIC (Staphylococcus aureus; ATCC43300, ATCC 43300, methicillin-sensitive, β-lactamase Neg./Pos.): 0.5 µg/mL (≈ 0.345 µM)
- MIC (Staphylococcus aureus; ATCC700260, ATCC 700260, methicillin-sensitive, β-lactamase Positive): 1 µg/mL (≈ 0.69 µM)
- MIC (Staphylococcus aureus; ATCC700698, ATCC 700698, methicillin-resistant, β-lactamase Negative): 2 µg/mL (≈ 1.38 µM)
- MIC (Staphylococcus aureus; ATCC700699, ATCC 700699, methicillin-resistant, β-lactamase Negative): 4 µg/mL (≈ 2.76 µM)
- MIC (Staphylococcus aureus; ATCC700787, ATCC 700787, methicillin-resistant, β-lactamase Positive): 8 µg/mL (≈ 5.52 µM)
- MIC (Staphylococcus aureus; ATCC700788, ATCC 700788, methicillin-resistant, β-lactamase Positive): 2 µg/mL (≈ 1.38 µM)
- MIC (Staphylococcus aureus; ATCC700789, ATCC 700789, methicillin-resistant, β-lactamase Positive): 2 µg/mL (≈ 1.38 µM)
- MIC (Staphylococcus aureus; MRSA, read-out: Geometric mean of MIC, MRSA tested (7)): 1.64 µg/mL (≈ 1.13 µM)
- MIC (Staphylococcus aureus; MSSA, read-out: Geometric mean of MIC, MSSA tested (7)): 0.36 µg/mL (≈ 0.248 µM)
- MIC (Staphylococcus aureus; read-out: Geometric mean of MIC, S. aureus (14)): 0.86 µg/mL (≈ 0.593 µM)
- MIC (Staphylococcus aureus; read-out: Geometric mean of MIC, S. aureus β-lactamase negative (2)): 2.83 µg/mL (≈ 1.95 µM)
- MIC (Staphylococcus aureus; read-out: Geometric mean of MIC, S. aureus β-lactamase positive (12)): 0.94 µg/mL (≈ 0.649 µM)
- MIC (E. faecalis): > 6.41 µg/mL
- MIC range (S. epidermidis; S. epidermidis (5)): 1 to 2 µg/mL
- MIC (S. epidermidis; read-out: GM* MIC (geometric mean)): 1.74 µg/mL (≈ 1.2 µM)
- MIC (S. epidermidis; read-out: MICs of heterogeneous vancomycin resistant strains): 2 µg/mL (≈ 1.38 µM)
- MIC (E. faecium): > 3.49 µg/mL
- MIC ([1]; Enterococcus, VRE, read-out: GM* MIC (geometric mean)): > 47.4 µg/mL
- GM* MIC (geometric mean) ([1]; VRE (5)): >47.4 µg/mL

Compound: TEM-1 β-lactamase (Escherichia coli)
- Km [2]: 15 µM
- kcat [2]: 3.3 s⁻¹
- kcat/Km [2]: 220000 M⁻¹ s⁻¹

Compound: Oc1cc(Cl)ccc1Oc1ccc(Cl)cc1Cl [Triclosan, triclosan, reference compound]
- glucuronidation by human liver microsome [3]: glucuronidated
- IC50 ratio N/R (E coli R(Tem1); 10 hours): N/R = 1555x
- IC50 ratio N/R (E coli R(Tem1); 20 hours): N/R = 2.5x
- IC50 (E coli R(Tem1); Escherichia coli, 10 h, read-out: IC50 10 hours, Cell R (Tem1), 10 hours): 0.166 nM
- IC50 (E coli R(Tem1); read-out: IC50 10 hours, Cell R (Tem1), 10 hours): 0.24 nM

Compound: CC(=O)OCC1=C(C(=O)O)N2C(=O)[C@@H](NC(=O)Cc3cccs3)[C@H]2SC1 [Cephalothin, cephalothin, reference compound]
- MIC (K. pneumoniae): > 66 µg/mL
- MIC (Staphylococcus aureus; ATCC11632, ATCC 11632, methicillin-sensitive, β-lactamase Neg./Pos., read-out: MIC): 0.2 µg/mL (≈ 0.504 µM)
- MIC (Staphylococcus aureus; ATCC13301, ATCC 13301, methicillin-sensitive, β-lactamase Positive, read-out: MIC): 6.25 µg/mL (≈ 15.8 µM)
- MIC (Staphylococcus aureus; ATCC14154, ATCC 14154, methicillin-sensitive, β-lactamase Positive, read-out: MIC): 0.39 µg/mL (≈ 0.984 µM)
- MIC (Staphylococcus aureus; ATCC33591, ATCC 33591, methicillin-resistant, β-lactamase Positive, read-out: MIC): 0.56 µg/mL (≈ 1.41 µM)
- MIC (Staphylococcus aureus; ATCC33592, ATCC 33592, methicillin-sensitive, β-lactamase Positive, read-out: MIC): 1.56 µg/mL (≈ 3.93 µM)
- MIC (Staphylococcus aureus; ATCC33593, ATCC 33593, methicillin-resistant, β-lactamase Positive, read-out: MIC): 0.78 µg/mL (≈ 1.97 µM)
- MIC (Staphylococcus aureus; ATCC33594, ATCC 33594, methicillin-sensitive, β-lactamase Positive, read-out: MIC): 0.2 µg/mL (≈ 0.504 µM)
- MIC (Staphylococcus aureus; ATCC43300, ATCC 43300, methicillin-sensitive, β-lactamase Neg./Pos., read-out: MIC): 0.39 µg/mL (≈ 0.984 µM)
- MIC (Staphylococcus aureus; ATCC700260, ATCC 700260, methicillin-sensitive, β-lactamase Positive, read-out: MIC): 0.39 µg/mL (≈ 0.984 µM)
- MIC (Staphylococcus aureus; ATCC700698, ATCC 700698, methicillin-resistant, β-lactamase Negative, read-out: MIC): 100 µg/mL (≈ 252 µM)
- MIC (Staphylococcus aureus; ATCC700699, ATCC 700699, methicillin-resistant, β-lactamase Negative, read-out: MIC): 100 µg/mL (≈ 252 µM)
- MIC (Staphylococcus aureus; ATCC700787, ATCC 700787, methicillin-resistant, β-lactamase Positive, read-out: MIC): 50 µg/mL (≈ 126 µM)
- MIC (Staphylococcus aureus; ATCC700788, ATCC 700788, methicillin-resistant, β-lactamase Positive, read-out: MIC): 3.13 µg/mL (≈ 7.9 µM)
- MIC (Staphylococcus aureus; ATCC700789, ATCC 700789, methicillin-resistant, β-lactamase Positive, read-out: MIC): 6.25 µg/mL (≈ 15.8 µM)
- MIC (Staphylococcus aureus; MRSA, MRSA tested (7), read-out: Geometric mean of MIC): 10.2 µg/mL (≈ 25.9 µM)
- MIC (Staphylococcus aureus; MSSA, MSSA tested (7), read-out: Geometric mean of MIC): 0.58 µg/mL (≈ 1.46 µM)
- MIC (Staphylococcus aureus; S. aureus (14), read-out: Geometric mean of MIC): 2.45 µg/mL (≈ 6.18 µM)
- MIC (Staphylococcus aureus; S. aureus β-lactamase negative (2), read-out: Geometric mean of MIC): 100 µg/mL (≈ 252 µM)
- MIC (Staphylococcus aureus; S. aureus β-lactamase positive (12), read-out: Geometric mean of MIC): 1.32 µg/mL (≈ 3.33 µM)
- MIC range (E. faecalis; E. faecalis (7)): 25 to 100 µg/mL
- MIC (E. faecalis; E. faecalis (7)): 61 µg/mL (≈ 154 µM)
- MIC range (S. epidermidis; S. epidermidis (5)): 0.2 to 25 µg/mL
- MIC (S. epidermidis; S. epidermidis (5), read-out: GM* MIC (geometric mean)): 1.81 µg/mL (≈ 4.57 µM)
- MIC range (E. aerogenes): >100 µg/mL
- MIC (E. aerogenes; Klebsiella aerogenes, read-out: GM* MIC (geometric mean)): > 100 µg/mL
- MIC range (E. faecium; E. faecium (6)): >100 µg/mL
- MIC (E. faecium; E. faecium (6)): > 100 µg/mL
- MIC range (E. cloacae): >100 µg/mL
- MIC (E. cloacae; Enterobacter cloacae, read-out: GM* MIC (geometric mean)): > 100 µg/mL
- MIC (E. coli/TEM-1): > 32 µg/mL
- MIC (E. coli N): 16 µg/mL (≈ 40.4 µM)
- MIC range (S. pneumoniae): 0.06 to 2 µg/mL
- MIC (S. pneumoniae; Streptococcus pneumoniae, read-out: GM* MIC (geometric mean)): 0.247 µg/mL (≈ 0.623 µM)
